Data reported in article PMC9698730 (Molecules, 2022).
Values joined by “and” are separate entries in the source; they are usually repeats but may differ in a detail not shown here. Equal entries are not always repeated. “Also recorded” adds a separate entry of the source. Where two headings read alike, the source gives them in different places.

Key:
RNA-FL complex = format: binding, SARS-CoV-2; conditions: for competition with RNA / nucleic acids binding to FL: DLS, in words
Procedure: To further address whether the ligands may modify the oligomeric status of the FL protein, we performed dynamic light scattering experiments. […] We then tested whether ligand binding to FL could be competitive with nucleic acids binding.
(§1) The experiments were performed on a Malvern nanosizer apparatus. The temperature was set at 20 °C, and 10 scans with a duration of 10 s each were acquired in duplicate for each time and sample. The size distribution in the intensity of the scattered light was obtained using the Cumulants method from the instrumental software, yielding the hydrodynamic diameter. The N NTD concentration was in the range of 40–60 μM, the FL concentration was in the range of 1 to 10 µM in 20 mM Tris buffer at pH = 7.9 containing 100 mM NaCl. The melting experiments were performed at a heating rate of 1 °C/min over the range 30 °C to 65 °C in sealed disposable cuvettes. The apparent melting temperature, Tm, was determined by the first derivative of the melting curve.

FL [1] = format: binding, SARS-CoV-2; conditions: for Size (nm) Intensity / Size (nm) Volume: pH 7.9
FL [2] = format: binding
DNA-FL complex = experiment: Dynamic light scattering, competition with DNA binding to FL; design: species or system SARS-CoV-2; conditions: for Size, Intensity: percentage in parentheses / Size, Volume: percentage in parentheses / Size (nm) Volume / Size (nm) Intensity: DNA + ligand, 4 µM, FL 4 µM; for Size (nm) Volume: without ligand 15.7 ± 1.2; for Size (nm) Intensity: without ligand 25.3 ± 3.1
Procedure: To further address whether the ligands may modify the oligomeric status of the FL protein, we performed dynamic light scattering experiments. FL (2 µM) presented a main peak at 12.0 ± 0.6 nm in volume (14 nm in intensity); the size of the complex decreased to 10.3 and 7.8 ± 0.3 nm upon addition of 2 µM and 6 µM enkephalin, respectively (Figure 6D). […] We then tested whether ligand binding to FL could be competitive with nucleic acids binding.
as §1

NTD wt [3] = biological target: T1, NTD wt (Severe acute respiratory syndrome coronavirus 2, UniProt P0DTC9); format: binding
viral replication = conditions: cited from earlier work
NTD wt [4] = biological target: T1, NTD wt; conditions: cited from earlier work
SARS-CoV-2 = conditions: cited from earlier work
[5] = test system: model of reconstituted lung epithelium; conditions: cited from earlier work
[6] = test system: patients hospitalized for mild and moderate COVID-19; conditions: human, in vivo; cited from earlier work

| Molecule | competition with RNA / nucleic acids binding to FL (RNA-FL complex) | Size, Intensity: percentage in parentheses (FL [1]) | Size, Volume: percentage in parentheses (FL [1]) | effect on size (oligomeric status) of FL (FL [1]) | Size (nm) Intensity (FL [1]) | Size (nm) Volume (FL [1]) | effect on viral replication (viral replication; ref [17],[18],[34],[35]) | other results |
| --- | --- | --- | --- | --- | --- | --- | --- | --- |
| RPKPQQF-OH [Substance P (1-7), Substance P (1-7) RPKPQQF-OH] | competitive with nucleic acids binding to FL; also recorded: consistent with a competition | 10.3 ± 0.6 (50%) 8.0 ± 1.0 (76%) | 9.5 ± 0.6 (98%) 7.2 ± 1.1 (99%) | a larger decrease | 10.3 ± 0.6 (50%) 8.0 ± 1.0 (76%) nm | 9.5 ± 0.6 (98%) 7.2 ± 1.1 (99%) nm | – | Size, Intensity: percentage in parentheses (RNA-FL complex; RNA + ligand, 4 µM, FL 4 µM): 75%; Size, Volume: percentage in parentheses (RNA-FL complex; RNA + ligand, 4 µM, FL 4 µM): 97%; Size (nm) Volume (RNA-FL complex; RNA + ligand, 4 µM, FL 4 µM, without ligand 15.1 ± 1.1): 11.3 ± 0.6 nm; Size (nm) Intensity (RNA-FL complex; RNA + ligand, 4 µM, FL 4 µM, without ligand 21.5 ± 2.0): 16.1 ± 0.6 nm; binding to FL by SPR, in words (FL [2]): bound the N FL protein as measured by SPR; also recorded: observed; Size, Intensity: percentage in parentheses (DNA-FL complex): 70%; Size, Volume: percentage in parentheses (DNA-FL complex): 91%; Size (nm) Volume (DNA-FL complex): 10.1 ± 0.6 nm; Size (nm) Intensity (DNA-FL complex): 13.8 ± 0.6 nm; binding to NTD by SPR, in words (NTD wt [3]): observed |
| Dihydrofolate [DHF] | consistent with a competition | – | – | – | – | – | decrease viral replication | binding to FL by SPR, in words (FL [2]): binding of DHF to the full-length protein was smaller; effect on viral replication (viral replication; ref [35]): reduction of viral replication; Kd (NTD wt [3]; SPR, NTD, ligand range 0.3–10.0 µM, 20 mM HEPES, 100 mM NaCl, 0.05% Tween): ~1 µM and 1 µM |
| tetrahydrofolate [THF] | – | – | – | – | – | – | – | effect on viral replication (viral replication; ref [35]): reduction of viral replication |
| Leu-enkephalin | competitive with nucleic acids binding to FL; also recorded: consistent with a competition | 12.6 ± 0.6 (31%) 8.7 ± 0.2 (40%) | 11.3 ± 0.6 (96%) 8.0 ± 0.3 (100%) | decreased its size as compared to the size of N alone | 12.6 ± 0.6 (31%) 8.7 ± 0.2 (40%) nm | 11.3 ± 0.6 (96%) 8.0 ± 0.3 (100%) nm | – | effect on size of N-DNA complex, in words (DNA-FL complex; DLS, Figure 6E): the size of the N-DNA complex was reduced; Size, Intensity: percentage in parentheses (DNA-FL complex): 89%; Size, Volume: percentage in parentheses (DNA-FL complex): 99%; Size (nm) Volume (DNA-FL complex): 9.0 ± 1.7 nm; Size (nm) Intensity (DNA-FL complex): 10.5 ± 1.2 nm |
| COc1ccc2cc([C@H](C)C(=O)O)ccc2c1 [Naproxen, naproxen] | – | 12.2 ± 0.5 (40%) 8.7 ± 0.3 (60%) | 11.3 ± 0.4 (99%) 8.9 ± 0.3 (96%) | the same trend was observed | 12.2 ± 0.5 (40%) 8.7 ± 0.3 (60%) nm | 11.3 ± 0.4 (99%) 8.9 ± 0.3 (96%) nm | – | binding to N-terminal domain in vitro (NTD wt [4]): bound to SARS-CoV-2 N-terminal domain (NTD) in vitro; effect on viral replication (viral replication): decrease viral replication; viral load of infected cells (SARS-CoV-2): reduced the viral load of infected cells; protection of lung cells against viral injury [5]: protected lung cells against viral injury; replication and inflammation in reconstituted lung epithelium [5]: inhibited replication and reduced inflammation |
| COc1ccc2c(c1)c(CC(=O)O)c(C)n2C(=O)c1ccc(Cl)cc1 [Indomethacin, indomethacin] | consistent with a competition | 11.0 ± 0.4 (30%) 6.7 ± 0.3 (60%) | 10.3 ± 0.5 (100%) 6.3 ± 0.4 (96%) | a larger decrease | 11.0 ± 0.4 (30%) 6.7 ± 0.3 (60%) nm | 10.3 ± 0.5 (100%) 6.3 ± 0.4 (96%) nm | decrease viral replication | patient recovery [6]: helped the patients to recover |
| Hemin | – | – | – | – | – | – | decrease viral replication | effect on viral replication (viral replication; hemin binding to N, ref [32]): reduce viral replication |
